In US20240108618A1, “KRAS G12C INHIBITOR DOSING REGIMENS” (Eli Lilly and Company, priority 2022, published 2024):

Test system: KRAS G12C-mutant advanced solid tumors
Assay: NCT04956640 Phase 1a monotherapy clinical response (BOR, ORR, DCR, DOR, TTR, % change from baseline, treatment duration)
Type: in vivo, human
Details: for Best overall response (BOR): Complete Response (CR), % / Best overall response (BOR): No Evaluable (NE), % / Best overall response (BOR): Partial Response (PR), % / Best overall response (BOR): Partial Response, pending confirmation and ongoing (uPR), % / Best overall response (BOR): Progressive Disease (PD), % / Best overall response (BOR): Stable Disease (SD), % / Disease control rate (CR + PR + uPR + SD), % / Objective response rate (CR + PR), % / Objective response rate, confirmed and unconfirmed (CR + PR + uPR), %: Phase 1a NSCLC patients; for Duration of response (DOR) 6 to <9 months / Duration of response (DOR) <6 months / Time to response (TTR) 2 to <4 months / Time to response (TTR) 4 to <6 months / Time to response (TTR) 6 to <9 months / Time to response (TTR) <2 months: Phase 1a responders
Experimental: The term “BOR” as used herein refers to best overall response based on investigator assessments using RECIST criteria (version 1.1). The minimum duration for BOR of SD is at least 6 weeks after the date of first dose of study drug.
The term “DOR” as used herein refers to duration of response, wherein DOR in months is calculated as the event or censoring date minus the response start date plus 1 day divided by 30.4375.
The term “ORR” as used herein refers to objective response rate, wherein objective response rate is the proportion of patients with BOR of CR or PR. Objective response rate, unconfirmed, is the proportion of patients with BOR of CR, PR, or uPR.
The term “TTR” as used herein refers to time to response, wherein TTR in months is calculated as response start date minus first dose date plus 1 day divided by 30.4375.
NCT04956640 includes Phase 1a dose escalation (Part A of NCT04956640, see Table 3) followed by a Phase 1b dose expansion (Parts B to E of NCT04956640, see Table 4). […] Phase 1b dose expansion will include 12 cohorts (See Table 4) to further evaluate safety and clinical activity.

[1] = Without Prior KRAS G12Ci (N = 8)
[2] = starting dose 50 mg BID (N = 14)
[3] = starting dose 100 mg BID (N = 24)
[4] = starting dose 150 mg BID (N = 25)
[5] = starting dose 200 mg BID (N = 12)

In the case of C=CC(=O)N1CCN2C(=O)c3cc(F)c(-c4ccc(F)c5sc(N)c(C#N)c45)c(Cl)c3OCC[C@H]2C1 (single isomer, unassigned) [Formula I], the “Best observed response PD (unconfirmed and confirmed), patients” value (shortened to “Best observed response PD”) (CRC) is reported as 1, the “Best observed response PR (unconfirmed and confirmed), patients” value (“Best observed response PR” below) (CRC) is reported as 1 and the “Best observed response SD, patients” value (CRC) is reported as 13. The “Best observed response PD” value (NSCLC naïve to KRAS G12Ci) was 1, the “Best observed response SD, patients” value (NSCLC naïve to KRAS G12Ci) was 1 and the “Best observed response PD” value (NSCLC with prior KRAS G12Ci) was 3. The “Best observed response PR” value (NSCLC with prior KRAS G12Ci) was 1, the “Best observed response SD, patients” value (NSCLC with prior KRAS G12Ci) was 3 and the “Best observed response PD” value (PANC) was 2. The “Best observed response PR” value (PANC) was 2, the “Best observed response SD, patients” value (PANC) was 2 and the “Best overall response (BOR): Complete Response (CR), %” value (“Best overall response (BOR) … (CR), %” for short) (Total (N = 22)) was “(0.0) %”. For the same molecule, the “Best overall response (BOR): No Evaluable (NE), %” value (Total (N = 22)) was “(4.5) %”, the “Best overall response (BOR): Partial Response (PR), %” value (“Best overall response (BOR) … (PR), %” below) (Total (N = 22)) was “(18.2) %” and the “Best overall response (BOR): Partial Response, pending confirmation and ongoing (uPR), %” value (“Best overall response (BOR) … (uPR), %” for short) (Total (N = 22)) was “(0.0) %”. For the same molecule, the “Best overall response (BOR): Progressive Disease (PD), %” value (shortened to “Best overall response (BOR) … (PD), %”) (Total (N = 22)) was “(22.7) %”, the “Best overall response (BOR): Stable Disease (SD), %” value (“Best overall response … (SD), %” for short) (Total (N = 22)) was “(54.5) %” and the “Disease control rate (CR + PR + uPR + SD), %” value (Total (N = 22)) was “(72.7) %”. The “Objective response rate (CR + PR), %” value (Total (N = 22)) was “(18.2) %”, the “Objective response rate, confirmed and unconfirmed (CR + PR + uPR), %” value (“Objective response rate … (CR + PR + uPR), %” below) (Total (N = 22)) was “(18.2) %” and the “Best overall response (BOR) … (CR), %” value (With Prior KRAS G12Ci (N = 14)) was “(0.0) %”. For the same molecule, the “Best overall response (BOR): No Evaluable (NE), %” value (With Prior KRAS G12Ci (N = 14)) was “(7.1) %”, the “Best overall response (BOR) … (PR), %” value (With Prior KRAS G12Ci (N = 14)) was “(7.1) %” and the “Best overall response (BOR) … (uPR), %” value (With Prior KRAS G12Ci (N = 14)) was “(0.0) %”. For the same molecule, the “Best overall response (BOR) … (PD), %” value (With Prior KRAS G12Ci (N = 14)) was “(28.6) %”, the “Best overall response … (SD), %” value (With Prior KRAS G12Ci (N = 14)) was “(57.1) %” and the “Disease control rate (CR + PR + uPR + SD), %” value (With Prior KRAS G12Ci (N = 14)) was “(64.3) %”. The “Objective response rate (CR + PR), %” value (With Prior KRAS G12Ci (N = 14)) was “(7.1) %”, the “Objective response rate … (CR + PR + uPR), %” value (With Prior KRAS G12Ci (N = 14)) was “(7.1) %” and the “Best overall response (BOR) … (CR), %” value [1] was “(0.0) %”. The “Best overall response (BOR): No Evaluable (NE), %” value [1] was “(0.0) %”, the “Best overall response (BOR) … (PR), %” value [1] was “(37.5) %” and the “Best overall response (BOR) … (uPR), %” value [1] was “(0.0) %”. For the same molecule, the “Best overall response (BOR) … (PD), %” value [1] was “(12.5) %”, the “Best overall response … (SD), %” value [1] was “(50.0) %” and the “Disease control rate (CR + PR + uPR + SD), %” value [1] was “(87.5) %”. The “Objective response rate (CR + PR), %” value [1] was “(37.5) %”, the “Objective response rate … (CR + PR + uPR), %” value [1] was “(37.5) %” and the “Duration of response (DOR) 6 to <9 months” value (from here on “Duration … to <9 months”) (Total (N = 75)) was 3 (15.8) n (%). For the same molecule, the “Duration of response (DOR) <6 months” value (Total (N = 75)) was 16 (84.2) n (%), the “Time to response (TTR) 2 to <4 months” value (Total (N = 75)) was 2 (10.5) n (%) and the “Time to response (TTR) 4 to <6 months” value (Total (N = 75)) was 2 (10.5) n (%). For the same molecule, the “Time to response (TTR) 6 to <9 months” value (Total (N = 75)) was 1 (5.3) n (%), the “Time to response (TTR) <2 months” value (Total (N = 75)) was 14 (73.7) n (%) and the “Duration … to <9 months” value [2] was 0 (0.0) n (%). The “Duration of response (DOR) <6 months” value [2] was 2 (100.0) n (%), the “Time to response (TTR) 2 to <4 months” value [2] was 0 (0.0) n (%) and the “Time to response (TTR) 4 to <6 months” value [2] was 0 (0.0) n (%). The “Time to response (TTR) 6 to <9 months” value [2] was 0 (0.0) n (%), the “Time to response (TTR) <2 months” value [2] was 2 (100.0) n (%) and the “Duration … to <9 months” value [3] was 0 (0.0) n (%). For the same molecule, the “Duration of response (DOR) <6 months” value [3] was 7 (100.0) n (%), the “Time to response (TTR) 2 to <4 months” value [3] was 1 (14.3) n (%) and the “Time to response (TTR) 4 to <6 months” value [3] was 0 (0.0) n (%). For the same molecule, the “Time to response (TTR) 6 to <9 months” value [3] was 1 (14.3) n (%), the “Time to response (TTR) <2 months” value [3] was 5 (71.4) n (%) and the “Duration … to <9 months” value [4] was 2 (33.3) n (%). For the same molecule, the “Duration of response (DOR) <6 months” value [4] was 4 (66.7) n (%), the “Time to response (TTR) 2 to <4 months” value [4] was 0 (0.0) n (%) and the “Time to response (TTR) 4 to <6 months” value [4] was 2 (33.3) n (%). The “Time to response (TTR) 6 to <9 months” value [4] was 0 (0.0) n (%), the “Time to response (TTR) <2 months” value [4] was 4 (66.7) n (%) and the “Duration … to <9 months” value [5] was 1 (25.0) n (%). For the same molecule, the “Duration of response (DOR) <6 months” value [5] was 3 (75.0) n (%), the “Time to response (TTR) 2 to <4 months” value [5] was 1 (25.0) n (%) and the “Time to response (TTR) 4 to <6 months” value [5] was 0 (0.0) n (%). For the same molecule, the “Time to response (TTR) 6 to <9 months” value [5] was 0 (0.0) n (%), the “Time to response (TTR) <2 months” value [5] was 3 (75.0) n (%) and the “Patients with best overall response of CR or PR” value (Phase 1a, Total (N = 75)) was 19 (25.3) N′ (%).
